From patent publication US20140328799A1, “COMPOSITIONS USEFUL FOR THE TREATMENT OF VIRAL DISEASES” (priority 2011, published 2014)
Entries after “also recorded” stand apart in the source; their conditions may differ.

Test system: HCV replicons encoding amino acid variations R155K, A156T, and D168Y in the NS3 protease
Assay: HCV replicon TaqMan assay, variants compared with wildtype
Format: cell-based, Hepatitis C virus
Details: NS3 protease variants versus wildtype genotype 1b (con1)
Description: The day prior to titration replicon cells are seeded into a 96-well Costar black-walled clear bottom plate (3,000 cells/well) in 100 μl complete D-MEM and incubated 0/N at 37° C. The next morning 25 μl of compound dilutions (5× final concentration) in complete DMEM and 5% DMSO are added, adjusting the final DMSO concentration to 1.0%. Cells with compound are incubated for 48 hours at 37° C.
Total RNA is isolated from cells of each well using the QIAGEN RNeasy 96-well kit according to manufacturer's instructions (QIAGEN, Inc. Valencia, Calif.). RNA is eluted twice in 60 μl aliquots and combined. […]
The normalized value for the amount of replicon RNA is determined by measuring the experimental cycle threshold CT as described above, determining the amount of RNA against a standard curve of total replicon cell RNA, and normalizing this to the signal produced by the cellular human Cyclophilin A gene using Taqman PDAR Human Cyclophilin (Applied Biosystems Inc., Foster City, Calif.).
HCV replicons encoding amino acid variations R155K, A156T, and D168Y in the NS3 protease have been constructed using standard techniques in molecular cloning. The susceptibility of these replicon variants to inhibition by Compound 6 and a Compound T4, was assessed in the HCV replicon assay, and the results are shown in Table 2. […]

| SMILES | change in susceptibility to inhibition of replicon variants versus wildtype |
| --- | --- |
| CC[C@@H]1C[C@]1(NC(=O)[C@@H]1C[C@@H]2CN1C(=O)[C@H](C(C)(C)C)NC(=O)OCC(C)(C)CCCCc1cccc3c1CN(C3)C(=O)O2)C(=O)NS(=O)(=O)C1CC1 [Compound 6] | significantly reduced susceptibility to inhibition; also recorded: significant losses of potency |
| C[C@@]1(O)[C@H](O)[C@@H](CO)O[C@H]1n1cnc2c(N)ncnc21 [Compound T4] | no significant change in susceptibility to inhibition; also recorded: no loss of potency |
